One experiment relates to A549 lung cancer cells. Description: CAM inoculated with A549 lung cancer cells: angiogenesis and tumor growth. Type of experiment: in vivo, chicken. The following applies: for Inhibition rates of angiogenesis (%) / Inhibition rates of tumor growth (%): A549 on CAM, 5 days; for inhibitory effects on angiogenesis and tumor growth (in words): at each density. As for the experimental part:
To confirm inhibitory effects on angiogenesis through in vivo experiments, the CAM analysis was carried out (refer to Nguyen M et al., Microvascular Res., 47, pp 31-40, 1994). A fertilized egg of a chicken was cultured in conditions maintaining a temperature of 37° C. and relative humidity of 55%. On the 9th day of the culturing, a first small hole was made on an air sac part using a hypodermic needle (Green Cross Medical Corp., Korea), and then, a second hole was made on a flat part of the fertilized egg to make a window thereon. Air was removed through the first hole, i.e., the air sac part, and accordingly, the CAM was separated from the shell of the fertilized egg. Then, a grinding wheel (Multipro 395JA, Dremel, Mexico) was used to cut the air sac part, thereby making a window thereon. Meanwhile, A549 lung cancer cells were mixed with matrigel at a ratio of 1:1, and then, the mixture was treated with Compounds 8a, 8b, and 8g, respectively, followed by being inoculated at a density of 1.5×10^6 cells/CAM.
After 5 days of the inoculation, the CAM part on which tumors were formed was isolated, and then, washed with PBS. The Stemi SV6 stereomicroscope (Carl Zeiss, Germany) and the Image-Pro Plus software (Media Cybernetics; Silver Spring, Md., USA) were used to capture images of the CAM part, so as to measure the number of the blood vessels and to analyze data obtained therefrom.

The next experiment deals with cathepsin S. Description: RT-PCR of cathepsin S gene expression in MDA-MB-231 cells. Format: cell-based. The following applies: Homo sapiens, MDA-MB-231, 24 h, screening, 1 μM of each compound; MDA-MB-231, RT-PCR; read-out: Inhibition rate of expression of cathepsin S (%).
The test system of another experiment is HT-29 cells / U937 cells. Description: TNF-α-induced adhesion of HT-29 intestinal epithelial cells and U937 mononuclear cells. Type of experiment: cell-based, human. The following applies: Homo sapiens; 1 μM, pre-treated 1 hour; TNF-α 10 ng/ml; read-out: Inhibitory rates (%). An outline of the steps: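 HT-29 cells were pretreated with compound for 1 h in serum-free medium, then stimulated with TNF-α 10 ng/ml for 3 h at 37 °C. BCECF-AM-labelled U937 cells were co-incubated for 1 h at 37 °C. Non-adherent cells were washed off, and lysates in 0.1% Triton X-100/0.1 M Tris were read by fluorescence.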

For another experiment, the system named is ARPE-19 cell line. Description: Scavenging of ROS induced by risk factors of macular degeneration (4-HNE, Ang II) in ARPE-19 cells. The following applies: vs control group. Type of experiment: cell-based. Here is the method: (§1) To measure scavenging effects of ROS in HUVEC cells that were induced by VEGF, 2′,7′-dichlorofluorescein diacetate (DCF-DA) was used. […] After […] at a concentration of 1×10^5, each of which well was coated with 0.2% gelatin, DCF-DA was cultured for 24 hours. Meanwhile, Compounds 8a and 8b were pre-treated for 3 hours, induced by VEGF for 15 minutes, and then, washed with PBS (pH 7.4) three times. Then, 10 μM of DCF-DA was placed in a EBM-2 medium to be treated for 30 minutes in a dark room. Then, DCF-DA was washed again with PBS three times, and then, subjected to measure intensity of fluorescence in the cells by using a fluorescence microscope.
According to a similar manner as in Experimental Example 2, a risk factor of macular degeneration, e.g., 4-hydroxynonenal (4-HNE) or angiotensin II (Ang II), were treated with an adult retinal pigment epithelium-19 (ARPE-19) cell line, so as to observe scavenging effects of ROS in Compounds 8a and 8b.

In another experiment the test system is HUVEC cells. Description: Scavenging of VEGF-induced ROS in HUVEC cells (DCF-DA fluorescence). Format: cell-based. The following applies: pre-treated 3 hours, induced by VEGF 15 minutes, vs VEGF-induced cells. As for the experimental part: as §1
The mark [1] stands for this setting: ARPE-19 treated with 4-hydroxynonenal (4-HNE).
Where [2] appears, read: ARPE-19 treated with angiotensin II (Ang II).

From patent US9802897B2, “Amidopyridinol derivative or pharmaceutically acceptable salt thereof and pharmaceutical composition comprising same as active component” (Research Cooperation Foundation of Yeungnam University, priority 2013, dated 2017) come the findings set out here.

Bounds are passed on as bounds.

With `CC(=O)Nc1nc(C)c(O)c(C)c1C` [Compound 8a, N-(5-hydroxy-3,4,6-trimethylpyridine-2-yl)acetamide], the “Inhibition rates of angiogenesis (%)” value in the experiment on A549 lung cancer cells (0.001 pmol/CAM) is 12.7 ± 6.5%; in the experiment on A549 lung cancer cells (0.01 pmol/CAM), 23.8 ± 5.2 %; in the experiment on A549 lung cancer cells (0.1 pmol/CAM), 30.4 ± 3.7 %; in the experiment with A549 lung cancer cells (1.0 pmol/CAM), 41.2 ± 1.4 %. The “Inhibition rates of tumor growth (%)” value came to 20.3 ± 5.9% with A549 lung cancer cells (0.001 pmol/CAM), 34.2 ± 5.3 % in the experiment on A549 lung cancer cells (0.01 pmol/CAM), 37.9 ± 8.0 % in the experiment with A549 lung cancer cells (0.1 pmol/CAM) and 47.7 ± 4.1 % in the experiment with A549 lung cancer cells (1.0 pmol/CAM). For the same molecule, the “inhibitory effects on angiogenesis and tumor growth (in words)” value with A549 lung cancer cells is listed as “inhibited angiogenesis upon tumorigenesis, as well as tumor growth”. For the same molecule, the inhibition at 1 µM was at least 50% in the experiment with cathepsin S and 55.4% in the experiment with HT-29 cells / U937 cells. Also, the “intensity of fluorescence (ROS)” value with ARPE-19 cell line (setting [1]) and in the experiment with ARPE-19 cell line (setting [2]) was “significant decrease in the intensity of fluorescence” throughout. In addition, the “intensity of fluorescence in the cells (ROS)” value in the experiment with HUVEC cells is “significant decrease in the intensity of fluorescence”.
On to `CCCCCCCCCCCC(=O)Nc1nc(C)c(O)c(C)c1C` [Compound 8b, N-(5-hydroxy-3,4,6-trimethylpyridine-2-yl)dodecanamide], for which the “Inhibition rates of angiogenesis (%)” value in the experiment on A549 lung cancer cells (0.001 pmol/CAM) came out at 12.2 ± 4.4%; in the experiment with A549 lung cancer cells (0.01 pmol/CAM) it was 18.0 ± 3.2 %; with A549 lung cancer cells (0.1 pmol/CAM), 21.3 ± 2.0 %; with A549 lung cancer cells (1.0 pmol/CAM), 24.7 ± 2.2 %. Besides, the “Inhibition rates of tumor growth (%)” value turned out to be 21.7 ± 8.9% with A549 lung cancer cells (0.001 pmol/CAM), 26.0 ± 10.0% in the experiment on A549 lung cancer cells (0.01 pmol/CAM), 31.3 ± 7.3 % in the experiment on A549 lung cancer cells (0.1 pmol/CAM) and 38.2 ± 7.2 % with A549 lung cancer cells (1.0 pmol/CAM). The “inhibitory effects on angiogenesis and tumor growth (in words)” value in the experiment with A549 lung cancer cells was “inhibited angiogenesis upon tumorigenesis, as well as tumor growth”. Besides, the figures for the inhibition at 1 µM in the experiment on cathepsin S and with HT-29 cells / U937 cells were at least 50% and 55.8%, respectively. Moreover, the “intensity of fluorescence (ROS)” value in the experiment on ARPE-19 cell line (setting [1]) and in the experiment on ARPE-19 cell line (setting [2]) was “significant decrease in the intensity of fluorescence” in each case. Besides, in the experiment on HUVEC cells, the “intensity of fluorescence in the cells (ROS)” value is recorded as “significant decrease in the intensity of fluorescence”.
